Like-named read-outs stand apart in the source and are kept apart here.
Tests used:
CDK7/CycH/Mat1 = CDK7/CycH/Mat1 (Homo sapiens, UniProt P50613); assay: CDK7 Enzymatic Activity Assay (Lance Kinase Activity Assay, FRET); type: biochemical
Method: (§1) This protocol describes how the Lance Kinase Activity Assay was performed to determine IC50 values of compounds of general formula (I) against CDK/Cyclin complexes. The principle behind this enzymatic assay is based upon the phosphorylation of the Ulight-Peptide Substrat. It is detected by using a specific EU-labeled anti-phospho peptide antibody.
(§2) Binding of an inhibitor to the kinase prevents phosphorylation of the Ulight-MBP Substrat, resulting in a loss of FRET.
CDK7 Enzymatic Activity Assay
(§3) The compounds of general formula (I) exemplary summarized in Table 1 were diluted from a 10 mM DMSO stock solution 1:10 in a total volume of 15 μl DMSO. This compound predilution was then serial diluted 1:3 over 8 steps in DMSO and briefly spun down. Each compound solution was now diluted 1:20 in Enzymatic Buffer (HEPES: 50 mM, pH: 7.5; MgCl2: 10 mM; EGTA: 1 mM; DTT: 2 mM; Tween-20: 0.01%), mixed thoroughly and spun down.
(§4) For positive controls, 2 μl of DMSO working solution were mixed with 6 μl CDK7/CycH/Mat1/substrate working solution and 2 μl ATP working solution. Positive and negative controls were calculated from at least 8 different wells. The 384 well plates were mixed in a Teleshaker plate mixer (Beckman Coulter, Brea, Calif., USA) at 2000 rpm for 40 sec, and incubated for 1 h at room temperature before addition of 10 μl LANCE Detection Buffer (1×; EDTA: […]; Eu-Anti-P-MBP: 4 nM) per well. Plates were mixed in a Teleshaker plate mixer (Beckman Coulter, Brea, Calif., USA) at 2000 rpm for 40 sec, followed by incubation with Detection Buffer for 1 h, and reading. […] IC50 values were determined from the sigmoidal dose response curves with the software Quattro Workflow (Quattro GmbH, Munich, Germany).

CDK9/Cyclin T1 = CDK9/Cyclin T1 (Homo sapiens, UniProt P50750); assay: CDK9 Enzymatic Activity Assay (Lance Kinase Activity Assay, FRET); type: biochemical; settings: for IC50: Table 5B, class symbols per IC50 [nM] ranges of b581, read-out: CDK9: Selectivity of CDK7 inhibition over CDK9 inhibition
Method: as §1, §2
CDK9 Enzymatic Activity Assay
as §3
as §4, with “CDK9/cyclin T1/substrate” for “CDK7/CycH/Mat1/substrate”

[1] = CDK7/CycH/Mat1, 25 μM ATP final, class ranges, read-out: CDK7: IC50 [nM] for CDK7 inhibition

Chain of CDK7/CycH/Mat1 (P50613 whole entry): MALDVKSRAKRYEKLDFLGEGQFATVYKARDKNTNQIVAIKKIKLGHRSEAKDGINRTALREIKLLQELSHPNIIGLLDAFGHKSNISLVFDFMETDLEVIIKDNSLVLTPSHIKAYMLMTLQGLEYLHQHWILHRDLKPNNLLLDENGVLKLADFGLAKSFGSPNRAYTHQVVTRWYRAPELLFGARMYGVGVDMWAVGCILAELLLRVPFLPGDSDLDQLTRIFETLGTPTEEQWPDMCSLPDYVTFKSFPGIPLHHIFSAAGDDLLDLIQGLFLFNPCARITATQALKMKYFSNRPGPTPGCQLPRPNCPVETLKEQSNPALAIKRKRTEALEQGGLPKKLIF
Chain of CDK9/Cyclin T1 (P50750 whole entry): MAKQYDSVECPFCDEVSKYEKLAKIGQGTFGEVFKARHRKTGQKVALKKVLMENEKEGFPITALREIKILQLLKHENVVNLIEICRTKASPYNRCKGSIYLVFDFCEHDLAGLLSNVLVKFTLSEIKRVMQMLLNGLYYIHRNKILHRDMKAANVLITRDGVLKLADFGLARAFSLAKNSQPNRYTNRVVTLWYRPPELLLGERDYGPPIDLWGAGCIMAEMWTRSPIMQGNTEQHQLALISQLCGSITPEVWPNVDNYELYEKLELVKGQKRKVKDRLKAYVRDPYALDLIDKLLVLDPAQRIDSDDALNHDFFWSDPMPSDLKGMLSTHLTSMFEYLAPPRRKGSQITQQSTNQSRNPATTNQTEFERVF
Chain of CDK9/Cyclin T1 (O60563 whole entry partner): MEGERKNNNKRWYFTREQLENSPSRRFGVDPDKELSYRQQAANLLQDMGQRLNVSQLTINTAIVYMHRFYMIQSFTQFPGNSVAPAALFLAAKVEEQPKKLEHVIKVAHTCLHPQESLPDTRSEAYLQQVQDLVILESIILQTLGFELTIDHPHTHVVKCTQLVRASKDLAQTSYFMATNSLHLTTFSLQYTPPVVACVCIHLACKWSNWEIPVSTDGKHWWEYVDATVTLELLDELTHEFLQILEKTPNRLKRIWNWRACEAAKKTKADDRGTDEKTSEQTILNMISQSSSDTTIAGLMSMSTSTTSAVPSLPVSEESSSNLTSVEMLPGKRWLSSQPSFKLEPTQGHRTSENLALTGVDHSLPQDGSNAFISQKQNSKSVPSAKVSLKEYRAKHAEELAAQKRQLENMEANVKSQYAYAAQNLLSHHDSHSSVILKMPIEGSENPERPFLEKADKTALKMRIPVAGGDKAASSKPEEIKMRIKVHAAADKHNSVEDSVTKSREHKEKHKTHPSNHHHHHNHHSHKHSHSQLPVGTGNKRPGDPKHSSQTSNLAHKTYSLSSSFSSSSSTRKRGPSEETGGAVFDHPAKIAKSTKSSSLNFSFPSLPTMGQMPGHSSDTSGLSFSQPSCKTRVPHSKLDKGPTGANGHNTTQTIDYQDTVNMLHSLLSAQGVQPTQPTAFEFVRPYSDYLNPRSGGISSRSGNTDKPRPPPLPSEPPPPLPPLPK

Compound | IC50 (CDK7/CycH/Mat1; [1]) [nM] | IC50 (CDK9/Cyclin T1) [nM] | IC50 (CDK7/CycH/Mat1; Table 6, read-out: IC50 CDK7) [nM] | Selectivity CDK7 over CDK9 (CDK9/Cyclin T1; Table 6) [fold]
CC(C)c1cnn2c(NCc3c(F)cccc3F)nc(OC3CCN(C)CC3)nc12 [(VII-64), N-(2,6-difluorobenzyl)-8-isopropyl-2-((1-methylpiperidin-4-yl)oxy)pyrazolo[1,5-a][1,3,5]triazin-4-amine] | 5 to 10 | 50 to 500 |  | 
CC(C)c1cnn2c(NCc3ccccc3S(=O)(=O)N(C)C)nc(N3CCC4(CCCN4)CC3)nc12 [(VIII-35), 2-(((8-isopropyl-2-(1,8-diazaspiro[4.5]decan-8-yl)pyrazolo[1,5-a][1,3,5]triazin-4-yl)amino)methyl)-N,N-dimethylbenzenesulfonamide] | < 5 | > 2500 |  | 
CC(C)c1cnn2c(NCc3ccccc3-n3cncn3)nc(O[C@@H]3CCCNC3)nc12 [(VII-20), (R)-N-(2-(1H-1,2,4-triazol-1-yl)benzyl)-8-isopropyl-2-(piperidin-3-yloxy)pyrazolo[1,5-a][1,3,5]triazin-4-amine] | < 5 | 500 to 2500 |  | 
COc1ccccc1[C@H](C)Nc1nc(O[C@@H]2CCCNC2)nc2c(C(C)C)cnn12 [(VII-10), 8-isopropyl-N-((S)-1-(2-methoxyphenyl)ethyl)-2-((R)-piperidin-3-yloxy)pyrazolo[1,5-a][1,3,5]triazin-4-amine] | < 5 | 500 to 2500 |  | 
CC(C)c1cnn2c(NCc3ccccc3C#N)nc(OC3CCN(C)CC3)nc12 [(VII-55), 2-(((8-isopropyl-2-((1-methylpiperidin-4-yl)oxy)pyrazolo[1,5-a][1,3,5]triazin-4-yl)amino)methyl)benzonitrile] | 10 to 25 | > 2500 |  | 
CC(C)c1cnn2c(NCc3ccccc3N3CCOCC3)nc(OC3CCN(C)CC3)nc12 [(VII-60), 8-isopropyl-2-((1-methylpiperidin-4-yl)oxy)-N-(2-morpholinobenzyl)pyrazolo[1,5-a][1,3,5]triazin-4-amine] | > 25 | > 2500 |  | 
CC(C)c1cnn2c(NCc3ccccc3-n3cccn3)nc(N3CCC34CNC4)nc12 [(VIII-08), N-(2-(1H-pyrazol-1-yl)benzyl)-8-isopropyl-2-(1,6-diazaspiro[3.3]heptan-1-yl)pyrazolo[1,5-a][1,3,5]triazin-4-amine] | 5 to 10 | > 2500 |  | 
CC(C)c1cnn2c(NCc3ccccc3-n3cccn3)nc(N3CCC34CCNCC4)nc12 [(VIII-34), N-(2-(1H-pyrazol-1-yl)benzyl)-8-isopropyl-2-(1,7-diazaspiro[3.5]nonan-1-yl)pyrazolo[1,5-a][1,3,5]triazin-4-amine] | < 5 | > 2500 |  | 
Cc1ccccc1CNc1nc(OC2CCN(C)CC2)nc2c(C(C)C)cnn12 [(VII-53), 8-isopropyl-N-(2-methylbenzyl)-2-((1-methylpiperidin-4-yl)oxy)pyrazolo[1,5-a][1,3,5]triazin-4-amine] | 5 to 10 | 50 to 500 |  | 
CC(C)Oc1ccccc1CNc1nc(OC2CCNCC2)nc2c(C(C)C)cnn12 [(VII-17), N-(2-isopropoxybenzyl)-8-isopropyl-2-(piperidin-4-yloxy)pyrazolo[1,5-a][1,3,5]triazin-4-amine] | < 5 | > 2500 |  | 
CC(C)NS(=O)(=O)c1ccccc1CNc1nc(O[C@@H]2CCCNC2)nc2c(C(C)C)cnn12 [(VII-105), (R)-N-isopropyl-2-(((8-isopropyl-2-(piperidin-3-yloxy)pyrazolo[1,5-a][1,3,5]triazin-4-yl)amino)methyl)benzenesulfonamide] | > 25 | > 2500 |  | 
Cc1nccn1-c1ccccc1CNc1nc(OC2CCN(C)CC2)nc2c(C(C)C)cnn12 [(VII-75), 8-isopropyl-N-(2-(2-methyl-1H-imidazol-1-yl)benzyl)-2-((1-methylpiperidin-4-yl)oxy)pyrazolo[1,5-a][1,3,5]triazin-4-amine] | < 5 | > 2500 |  | 
COc1ccccc1[C@H](C)Nc1nc(OC2CCN(C)CC2)nc2c(C(C)C)cnn12 [(VII-67), (S)-8-isopropyl-N-(1-(2-methoxyphenyl)ethyl)-2-((1-methylpiperidin-4-yl)oxy)pyrazolo[1,5-a][1,3,5]triazin-4-amine] | < 5 | > 2500 |  | 
Cc1cccc(Cl)c1CNc1nc(OC2CCN(C)CC2)nc2c(C(C)C)cnn12 [(VII-62), N-(2-chloro-6-methylbenzyl)-8-isopropyl-2-((1-methylpiperidin-4-yl)oxy)pyrazolo[1,5-a][1,3,5]triazin-4-amine] | 10 to 25 | > 2500 |  | 
COc1ccccc1[C@H](C)Nc1nc(OC2CCNCC2)nc2c(C(C)C)cnn12 [(VII-15), (S)-8-isopropyl-N-(1-(2-methoxyphenyl)ethyl)-2-(piperidin-4-yloxy)pyrazolo[1,5-a][1,3,5]triazin-4-amine] | < 5 | > 2500 |  | 
CCOc1ccccc1CNc1nc(OC2CCN(C)CC2)nc2c(C(C)C)cnn12 [(VII-70), N-(2-ethoxybenzyl)-8-isopropyl-2-((1-methylpiperidin-4-yl)oxy)pyrazolo[1,5-a][1,3,5]triazin-4-amine] | < 5 | > 2500 | < 5 | 992

Next, values leading:

IC50 (CDK7/CycH/Mat1; [1]) [nM] | IC50 (CDK9/Cyclin T1) [nM] | IC50 (CDK7/CycH/Mat1; Table 6, read-out: IC50 CDK7) [nM] | Selectivity CDK7 over CDK9 (CDK9/Cyclin T1; Table 6) [fold] | Compound
< 5 | > 2500 |  |  | CC(C)c1cnn2c(NCc3ccccc3-n3cccn3)nc(N3CCC4(CNC4)C3)nc12 [(VIII-07), N-(2-(1H-pyrazol-1-yl)benzyl)-8-isopropyl-2-(2,6-diazaspiro[3.4]octan-6-yl)pyrazolo[1,5-a][1,3,5]triazin-4-amine]
10 to 25 | > 2500 |  |  | CC(C)c1cnn2c(NCc3ccccc3-n3cccn3)nc(N3CCCC4(CCCNC4)C3)nc12 (stereo not drawn) [(VIII-14), N-(2-(1H-pyrazol-1-yl)benzyl)-8-isopropyl-2-(2,8-diazaspiro[5.5]undecan-2-yl)pyrazolo[1,5-a][1,3,5]triazin-4-amine]
< 5 | > 2500 |  |  | CC(C)c1cnn2c(NCc3ccccc3-n3cccn3)nc(N3CCCC34CCNCC4)nc12 [(VIII-22), N-(2-(1H-pyrazol-1-yl)benzyl)-8-isopropyl-2-(1,8-diazaspiro[4.5]decan-1-yl)pyrazolo[1,5-a][1,3,5]triazin-4-amine]
10 to 25 | > 2500 |  |  | CC(C)c1cnn2c(NCc3ccccc3-n3cccn3)nc(N3CCC34CCCNC4)nc12 (stereo not drawn) [(VIII-04), N-(2-(1H-pyrazol-1-yl)benzyl)-8-isopropyl-2-(1,6-diazaspiro[3.5]nonan-1-yl)pyrazolo[1,5-a][1,3,5]triazin-4-amine]
10 to 25 | > 2500 |  |  | CC(C)c1cnn2c(NCc3ccccc3-n3cccn3)nc(N3CCCC4(CCCCN4)C3)nc12 (stereo not drawn) [(VIII-15), N-(2-(1H-pyrazol-1-yl)benzyl)-8-isopropyl-2-(1,8-diazaspiro[5.5]undecan-8-yl)pyrazolo[1,5-a][1,3,5]triazin-4-amine]
< 5 | > 2500 |  |  | CC(C)c1cnn2c(NCc3ccccc3-n3cccn3)nc(N3CC4(CCCNC4)C3)nc12 [(VIII-05), N-(2-(1H-pyrazol-1-yl)benzyl)-8-isopropyl-2-(2,6-diazaspiro[3.5]nonan-2-yl)pyrazolo[1,5-a][1,3,5]triazin-4-amine]
< 5 | > 2500 |  |  | CC(C)c1cnn2c(NCc3ccccc3-n3cccn3)nc(N3CCC4(CCNC4)C3)nc12 (stereo not drawn) [(VIII-03), N-(2-(1H-pyrazol-1-yl)benzyl)-8-isopropyl-2-(2,7-diazaspiro[4.4]nonan-2-yl)pyrazolo[1,5-a][1,3,5]triazin-4-amine]

Reference: US9567345B2, “Pharmaceutically active pyrazolo-triazine derivatives” (LEAD DISCOVERY CENTER GMBH, priority 2012, dated 2017)
